Experimental data reported in the supplement of paper PMC10307832.

Assays:
Test in all cases: relative viability (nuclei count vs DMSO), 5 days (fraction); higher = more cells survive
HCC-78 = test system: HCC-78
In short: (§1)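 Relative viability divides the nuclei count in treated wells by that in vehicle wells. Lung cancer cell lines were seeded in 1536-well plates, dosed by pin tool the next day, and fixed and stained after 5 days in one step with final 0.05% Triton X-100, 1% formaldehyde and 1 ug/ml Hoechst. Dosing was a single drug or a fixed anchor-drug dose plus five library-drug doses (not always all listed) in √10 steps, and values are medians of duplicate plates imaged at 4×.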

NCI-H2405 = test system: NCI-H2405
In short: as §1

LC-2-ad = test system: LC-2-ad
In short: as §1

ABC-1 = test system: ABC-1
In short: as §1

COR-L23 = test system: COR-L23
In short: as §1

HOP-62 = test system: HOP-62
In short: as §1

NCI-H2228 = test system: NCI-H2228
In short: as §1

ChaGo-K-1 = test system: ChaGo-K-1
In short: as §1

NCI-H1993 = test system: NCI-H1993
In short: as §1

NCI-H838 = test system: NCI-H838
In short: as §1

HCC-366 = test system: HCC-366
In short: as §1

HARA = test system: HARA
In short: as §1

NCI-H2023 = test system: NCI-H2023
In short: as §1

SK-LU-1 = test system: SK-LU-1
In short: as §1

EMC-BAC-2 = test system: EMC-BAC-2
In short: as §1

NCI-H23 = test system: NCI-H23
In short: as §1

HCC-15 = test system: HCC-15
In short: as §1

NCI-H2126 = test system: NCI-H2126
In short: as §1

`COc1nc(C)cnc1NS(=O)(=O)c1cccnc1-c1ccc(-c2nnco2)cc1` [Zibotentan] + CC(C)C[C@H](NC(=O)[C@H](Cc1ccccc1)NC(=O)c1cnccn1)B(O)O [Bortezomib] (partner 0.002 µM) was tested, and the relative viability (HCC-78; first compound 0.08 µM) was 0.473, the relative viability (HCC-78; first compound 0.253 µM) was 0.443 and the relative viability (HCC-78; first compound 0.8 µM) was 0.563. It also gave a relative viability (HCC-78; first compound 2.53 µM) of 0.485, a relative viability (NCI-H2405; first compound 0.08 µM) of 1.02 and a relative viability (NCI-H2405; first compound 0.253 µM) of 1.05. It also gave a relative viability (NCI-H2405; first compound 0.8 µM) of 0.991, a relative viability (NCI-H2405; first compound 2.53 µM) of 0.963 and a relative viability (LC-2-ad; first compound 0.08 µM) of 1.03. It also gave a relative viability (LC-2-ad; first compound 0.253 µM) of 0.932, a relative viability (LC-2-ad; first compound 0.8 µM) of 0.921 and a relative viability (LC-2-ad; first compound 2.53 µM) of 1.07. It also gave a relative viability (ABC-1; first compound 0.08 µM) of 0.348, a relative viability (ABC-1; first compound 0.253 µM) of 0.289 and a relative viability (ABC-1; first compound 0.8 µM) of 0.374. The relative viability (ABC-1; first compound 2.53 µM) was 0.316, the relative viability (COR-L23; first compound 0.08 µM) was 0.999 and the relative viability (COR-L23; first compound 0.253 µM) was 0.917. It also gave a relative viability (COR-L23; first compound 0.8 µM) of 0.98, a relative viability (COR-L23; first compound 2.53 µM) of 1.07 and a relative viability (HOP-62; first compound 0.08 µM) of 0.732. The relative viability (HOP-62; first compound 0.253 µM) was 0.625, the relative viability (HOP-62; first compound 0.8 µM) was 1.08 and the relative viability (HOP-62; first compound 2.53 µM) was 0.724. It also gave a relative viability (NCI-H2228; first compound 0.08 µM) of 0.801, a relative viability (NCI-H2228; first compound 0.253 µM) of 0.821 and a relative viability (NCI-H2228; first compound 0.8 µM) of 0.97. The relative viability (NCI-H2228; first compound 2.53 µM) was 1.07, the relative viability (ChaGo-K-1; first compound 0.08 µM) was 0.956 and the relative viability (ChaGo-K-1; first compound 0.8 µM) was 0.977. For the same compound, the relative viability (ChaGo-K-1; first compound 2.53 µM) was 0.99, the relative viability (NCI-H1993; first compound 0.253 µM) was 1.05 and the relative viability (NCI-H1993; first compound 0.8 µM) was 0.994. For the same compound, the relative viability (NCI-H1993; first compound 2.53 µM) was 1.8, the relative viability (NCI-H838; first compound 0.08 µM) was 0.891 and the relative viability (NCI-H838; first compound 0.253 µM) was 0.865. The relative viability (NCI-H838; first compound 0.8 µM) was 0.815, the relative viability (NCI-H838; first compound 2.53 µM) was 0.961 and the relative viability (HCC-366; first compound 0.08 µM) was 1.14. It also gave a relative viability (HCC-366; first compound 0.253 µM) of 1.03, a relative viability (HCC-366; first compound 0.8 µM) of 0.795 and a relative viability (HCC-366; first compound 2.53 µM) of 1.11. It also gave a relative viability (HARA; first compound 0.08 µM) of 1.18, a relative viability (HARA; first compound 0.253 µM) of 1.13 and a relative viability (HARA; first compound 0.8 µM) of 1.15. It also gave a relative viability (HARA; first compound 2.53 µM) of 1.19, a relative viability (NCI-H2023; first compound 0.08 µM) of 1.04 and a relative viability (NCI-H2023; first compound 0.253 µM) of 0.87. The relative viability (NCI-H2023; first compound 0.8 µM) was 0.909, the relative viability (NCI-H2023; first compound 2.53 µM) was 0.966 and the relative viability (SK-LU-1; first compound 0.08 µM) was 1.17. The relative viability (SK-LU-1; first compound 0.253 µM) was 0.988, the relative viability (SK-LU-1; first compound 0.8 µM) was 1.08 and the relative viability (SK-LU-1; first compound 2.53 µM) was 1.11. For the same compound, the relative viability (EMC-BAC-2; first compound 0.08 µM) was 1.18, the relative viability (EMC-BAC-2; first compound 0.253 µM) was 1.04 and the relative viability (EMC-BAC-2; first compound 0.8 µM) was 1.07. The relative viability (EMC-BAC-2; first compound 2.53 µM) was 1.09, the relative viability (NCI-H23; first compound 0.08 µM) was 1.25 and the relative viability (NCI-H23; first compound 0.253 µM) was 1.1. For the same compound, the relative viability (NCI-H23; first compound 0.8 µM) was 0.999, the relative viability (NCI-H23; first compound 2.53 µM) was 1.29 and the relative viability (HCC-15; first compound 0.08 µM) was 0.99. It also gave a relative viability (HCC-15; first compound 0.253 µM) of 1.01, a relative viability (HCC-15; first compound 0.8 µM) of 0.979 and a relative viability (HCC-15; first compound 2.53 µM) of 1.09. The relative viability (NCI-H2126; first compound 0.08 µM) was 1.19, the relative viability (NCI-H2126; first compound 0.253 µM) was 1.15 and the relative viability (NCI-H2126; first compound 0.8 µM) was 1.15. For the same compound, the relative viability (NCI-H2126; first compound 2.53 µM) was 1.16.
In the case of `O=c1cc(-c2cccc3c2Sc2ccccc2S3)oc(N2CCOCC2)c1` + CC(C)C[C@H](NC(=O)[C@H](Cc1ccccc1)NC(=O)c1cnccn1)B(O)O [Bortezomib] (partner 0.002 µM), the relative viability (HCC-78; first compound 0.08 µM) is reported as 0.461, the relative viability (HCC-78; first compound 0.253 µM) is reported as 0.48 and the relative viability (HCC-78; first compound 0.8 µM) is reported as 0.355. For the same compound, the relative viability (HCC-78; first compound 2.53 µM) was 0.482, the relative viability (HCC-78; first compound 8 µM) was 0.525 and the relative viability (NCI-H2405; first compound 0.08 µM) was 0.949. For the same compound, the relative viability (NCI-H2405; first compound 0.253 µM) was 1.11, the relative viability (NCI-H2405; first compound 0.8 µM) was 0.996 and the relative viability (NCI-H2405; first compound 2.53 µM) was 0.98. It also gave a relative viability (NCI-H2405; first compound 8 µM) of 1.03, a relative viability (LC-2-ad; first compound 0.08 µM) of 0.989 and a relative viability (LC-2-ad; first compound 0.253 µM) of 0.827. It also gave a relative viability (LC-2-ad; first compound 0.8 µM) of 1.06, a relative viability (LC-2-ad; first compound 2.53 µM) of 1.02 and a relative viability (LC-2-ad; first compound 8 µM) of 1.07. It also gave a relative viability (ABC-1; first compound 0.08 µM) of 0.364, a relative viability (ABC-1; first compound 0.253 µM) of 0.312 and a relative viability (ABC-1; first compound 0.8 µM) of 0.249. The relative viability (ABC-1; first compound 2.53 µM) was 0.333, the relative viability (ABC-1; first compound 8 µM) was 0.323 and the relative viability (COR-L23; first compound 0.08 µM) was 1.13. The relative viability (COR-L23; first compound 0.253 µM) was 1.49, the relative viability (COR-L23; first compound 0.8 µM) was 1.2 and the relative viability (COR-L23; first compound 2.53 µM) was 1. For the same compound, the relative viability (COR-L23; first compound 8 µM) was 1.48, the relative viability (HOP-62; first compound 0.08 µM) was 0.734 and the relative viability (HOP-62; first compound 0.253 µM) was 1.27. For the same compound, the relative viability (HOP-62; first compound 0.8 µM) was 0.735, the relative viability (HOP-62; first compound 2.53 µM) was 0.713 and the relative viability (HOP-62; first compound 8 µM) was 1.08. For the same compound, the relative viability (NCI-H2228; first compound 0.08 µM) was 0.965, the relative viability (NCI-H2228; first compound 0.253 µM) was 1.16 and the relative viability (NCI-H2228; first compound 0.8 µM) was 1.19. It also gave a relative viability (NCI-H2228; first compound 2.53 µM) of 0.982, a relative viability (NCI-H2228; first compound 8 µM) of 1.23 and a relative viability (ChaGo-K-1; first compound 0.08 µM) of 0.915. For the same compound, the relative viability (ChaGo-K-1; first compound 0.253 µM) was 1.02, the relative viability (ChaGo-K-1; first compound 0.8 µM) was 1.28 and the relative viability (ChaGo-K-1; first compound 8 µM) was 1.29. It also gave a relative viability (NCI-H1993; first compound 0.08 µM) of 1.12, a relative viability (NCI-H1993; first compound 0.253 µM) of 1.21 and a relative viability (NCI-H1993; first compound 0.8 µM) of 0.972. It also gave a relative viability (NCI-H1993; first compound 2.53 µM) of 1.04, a relative viability (NCI-H1993; first compound 8 µM) of 1.2 and a relative viability (NCI-H838; first compound 0.08 µM) of 0.703. For the same compound, the relative viability (NCI-H838; first compound 0.253 µM) was 1.05, the relative viability (NCI-H838; first compound 0.8 µM) was 0.728 and the relative viability (NCI-H838; first compound 2.53 µM) was 0.693. It also gave a relative viability (NCI-H838; first compound 8 µM) of 0.588, a relative viability (HCC-366; first compound 0.08 µM) of 1.09 and a relative viability (HCC-366; first compound 0.253 µM) of 1.65. It also gave a relative viability (HCC-366; first compound 0.8 µM) of 1.12, a relative viability (HCC-366; first compound 2.53 µM) of 1.03 and a relative viability (HCC-366; first compound 8 µM) of 1.28. The relative viability (HARA; first compound 0.08 µM) was 1.09, the relative viability (HARA; first compound 0.253 µM) was 1.37 and the relative viability (HARA; first compound 0.8 µM) was 0.926. It also gave a relative viability (HARA; first compound 2.53 µM) of 0.921, a relative viability (HARA; first compound 8 µM) of 1.24 and a relative viability (NCI-H2023; first compound 0.08 µM) of 1. It also gave a relative viability (NCI-H2023; first compound 0.253 µM) of 1.1, a relative viability (NCI-H2023; first compound 0.8 µM) of 0.988 and a relative viability (NCI-H2023; first compound 2.53 µM) of 0.528. It also gave a relative viability (NCI-H2023; first compound 8 µM) of 0.937, a relative viability (SK-LU-1; first compound 0.08 µM) of 1.12 and a relative viability (SK-LU-1; first compound 0.253 µM) of 1.18. The relative viability (SK-LU-1; first compound 0.8 µM) was 1.16, the relative viability (SK-LU-1; first compound 2.53 µM) was 1.2 and the relative viability (SK-LU-1; first compound 8 µM) was 1.91. For the same compound, the relative viability (EMC-BAC-2; first compound 0.08 µM) was 1.03, the relative viability (EMC-BAC-2; first compound 0.253 µM) was 1.18 and the relative viability (EMC-BAC-2; first compound 0.8 µM) was 1.1. The relative viability (EMC-BAC-2; first compound 2.53 µM) was 1.03, the relative viability (EMC-BAC-2; first compound 8 µM) was 1.1 and the relative viability (NCI-H23; first compound 0.08 µM) was 0.948. It also gave a relative viability (NCI-H23; first compound 0.253 µM) of 1.16, a relative viability (NCI-H23; first compound 0.8 µM) of 1.25 and a relative viability (NCI-H23; first compound 2.53 µM) of 0.914. It also gave a relative viability (NCI-H23; first compound 8 µM) of 1.09, a relative viability (HCC-15; first compound 0.08 µM) of 1.07 and a relative viability (HCC-15; first compound 0.253 µM) of 1.27. It also gave a relative viability (HCC-15; first compound 0.8 µM) of 1.22, a relative viability (HCC-15; first compound 2.53 µM) of 1 and a relative viability (HCC-15; first compound 8 µM) of 1.16. For the same compound, the relative viability (NCI-H2126; first compound 0.08 µM) was 1.13, the relative viability (NCI-H2126; first compound 0.253 µM) was 1.13 and the relative viability (NCI-H2126; first compound 0.8 µM) was 1.12. The relative viability (NCI-H2126; first compound 2.53 µM) was 1.1 and the relative viability (NCI-H2126; first compound 8 µM) was 1.2.
